This passage reports Ki, Activity and Km results from ChEMBL document CHEMBL2074405, “Transport of monoamine transmitters by the organic cation transporter type 2, OCT2” (J Biol Chem, 1998).

Several values for one entry are separate records, joined by “and”; a condition that tells them apart may be missing. Identical values can stand only once.

Data set [1] addresses T1, Solute carrier family 22 member 2 (Rattus norvegicus, UniProt Q9R0W2).
T1 sequence (Q9R0W2 whole entry): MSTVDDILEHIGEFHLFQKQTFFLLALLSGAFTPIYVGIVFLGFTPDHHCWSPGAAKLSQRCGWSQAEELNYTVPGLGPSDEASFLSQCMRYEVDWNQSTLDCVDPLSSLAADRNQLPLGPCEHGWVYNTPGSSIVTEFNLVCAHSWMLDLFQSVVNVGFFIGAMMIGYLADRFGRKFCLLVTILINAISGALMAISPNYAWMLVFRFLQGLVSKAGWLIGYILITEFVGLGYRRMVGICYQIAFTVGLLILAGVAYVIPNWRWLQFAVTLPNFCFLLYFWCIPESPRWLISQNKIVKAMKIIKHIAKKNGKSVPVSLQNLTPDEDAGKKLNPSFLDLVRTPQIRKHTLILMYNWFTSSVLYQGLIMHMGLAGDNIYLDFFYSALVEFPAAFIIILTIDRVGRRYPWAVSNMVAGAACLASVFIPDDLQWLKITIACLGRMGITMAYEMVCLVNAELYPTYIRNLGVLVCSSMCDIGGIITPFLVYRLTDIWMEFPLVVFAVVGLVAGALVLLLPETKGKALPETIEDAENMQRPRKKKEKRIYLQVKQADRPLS
The data set is described as follows: TP_TRANSPORTER: inhibition of Serotonin uptake in OCT2-expressing HEK293 cells. The format is functional, cell-based.

Data set [2] addresses T1, Solute carrier family 22 member 2. Nature of the data set: TP_TRANSPORTER: inhibition of Noradrenaline uptake in OCT2-expressing HEK293 cells. The format is functional, cell-based.
Data set [3] has the same target. The data set is described as follows: TP_TRANSPORTER: inhibition of Dopamine uptake in OCT2-expressing HEK293 cells. Format: functional, cell-based.
The target is the same in data set [4]. The data set is described as follows: TP_TRANSPORTER: inhibition of Adrenaline uptake in OCT2-expressing HEK293 cells. The format is functional, cell-based.
The target is the same in data set [5]. The data set is described as follows: TP_TRANSPORTER: inhibition of Dopamine uptake (Dopamine: 0.1 uM, Cocaine: 1 uM) in OCT2-expressing HEK293 cells. Format: functional, cell-based. The settings on record: human, hek293, 1 µM.
Data set [6] has the same target. Nature of the data set: TP_TRANSPORTER: inhibition of Dopamine uptake (Dopamine: 0.1 uM, O-Methylisoprenaline: 30 uM) in OCT2-expressing HEK293 cells. Format: functional, cell-based. The note with it: human, hek293, 30 µM.
Substrate in data set [7]: NC[C@H](O)c1ccc(O)c(O)c1
The data set is described as follows: cells, lysate or membranes named.

Substrate in data set [8]: NCCc1ccc(O)c(O)c1
Nature of the data set: cells, lysate or membranes named.

Substrate in data set [9]: CNC[C@H](O)c1ccc(O)c(O)c1
The data set is described as follows: cells, lysate or membranes named.

Substrate in data set [10]: NCCc1c[nH]c2ccc(O)cc12
The data set is described as follows: cells, lysate or membranes named.

For the molecule `CC(C)N1/C(=C\c2cc[n+](C(C)C)c3ccccc23)C=Cc2ccccc21` [DISPROCYNIUM24], the Ki (as a rule, the dissociation constant of the complex between target and ligand, obtained from inhibition or displacement) in [1] stood at 0.013 µM; in data set [2] it was 0.013 µM; in data set [3] it was 0.0051 µM; in [4], 0.012 µM.
As to `C[C@]12C[C@H](O)[C@H]3[C@@H](CCC4=CC(=O)CC[C@@]43C)[C@@H]1CC[C@@H]2C(=O)CO` [CORTICOSTERONE], the inhibition constant (Ki) in data set [1] turned out to be 0.605 µM; in [2] it was 0.46 µM; in [3], 0.39 µM; in data set [4] it was 0.42 µM.
With `COC(=O)[C@H]1[C@@H](OC(=O)c2ccccc2)C[C@@H]2CC[C@H]1N2C` [COCAINE], in data set [5], the Activity result was “is not an inhibitor [-]”.
`COc1cc(C(O)CNC(C)C)ccc1O` (centres undefined) [METIPRENALINE]: the Activity result in data set [6] is “is not an inhibitor [-]”.

B1: Solute carrier family 22 member 2 (Rattus norvegicus) (protein)
chain: T1 sequence (Q9R0W2 whole entry)
As to B1, the Michaelis constant (Km) (usually the concentration of substrate that gives half-maximal velocity) in data set [7] was 11 mM and 4.4 mM; in data set [8], 2.1 mM; in [9] it was 1.9 mM; in data set [10], 3.6 mM.
